Reference: patent publication US11433071B2, “Heterocyclylamines as PI3K inhibitors” (Incyte Corporation, priority 2011, dated 2022)

Target: PI3Kδ (p110δ/p85α) (Homo sapiens (Human), UniProt O00329)
Assay: PI3Kδ scintillation proximity assay (Example A3)
Assay type: biochemical
Details: assay not given
Method: [γ-^33P]ATP (10 mCi/mL) was purchased from Perkin-Elmer (Waltham, Mass.). […] PI3Kδ (p110δ/p85α) was purchased from Millipore (Bedford, Mass.). ATP, MgCl2, DTT, EDTA, MOPS and CHAPS were purchased from Sigma-Aldrich (St. Louis, Mo.). Wheat Germ Agglutinin (WGA) YSi SPA Scintillation Beads was purchased from GE healthcare life sciences (Piscataway, N.J.).
The kinase reaction was conducted in polystyrene 384-well matrix white plate from Thermo Fisher Scientific in a final volume of 25 μL. Inhibitors were first diluted serially in DMSO and added to the plate wells before the addition of other reaction components. The final concentration of DMSO in the assay was 0.5%. The PI3K assays were carried out at room temperature in 20 mM MOPS, pH 6.7, 10 mM MgCl2, 5 mM DTT and CHAPS 0.03%. Reactions were initiated by the addition of ATP, the final reaction mixture consisted of 20 μM PIP2, 20 μM ATP, 0.2 μCi [γ-^33P] ATP, 4 nM PI3Kδ. […] 25 mM EDTA, 400 µM ATP. The final concentration of SPA beads was 1.0 mg/mL. After the plate sealing, plates were shaken overnight at room temperature and centrifuged at 1800 rpm for 10 minutes, the radioactivity of the product was determined by scintillation counting on Topcount (Perkin-Elmer). IC50 determination was performed by fitting the curve of percent control activity versus the log of the inhibitor concentration using the GraphPad Prism 3.0 software.

PI3Kδ (p110δ/p85α), sequence (O00329 whole entry): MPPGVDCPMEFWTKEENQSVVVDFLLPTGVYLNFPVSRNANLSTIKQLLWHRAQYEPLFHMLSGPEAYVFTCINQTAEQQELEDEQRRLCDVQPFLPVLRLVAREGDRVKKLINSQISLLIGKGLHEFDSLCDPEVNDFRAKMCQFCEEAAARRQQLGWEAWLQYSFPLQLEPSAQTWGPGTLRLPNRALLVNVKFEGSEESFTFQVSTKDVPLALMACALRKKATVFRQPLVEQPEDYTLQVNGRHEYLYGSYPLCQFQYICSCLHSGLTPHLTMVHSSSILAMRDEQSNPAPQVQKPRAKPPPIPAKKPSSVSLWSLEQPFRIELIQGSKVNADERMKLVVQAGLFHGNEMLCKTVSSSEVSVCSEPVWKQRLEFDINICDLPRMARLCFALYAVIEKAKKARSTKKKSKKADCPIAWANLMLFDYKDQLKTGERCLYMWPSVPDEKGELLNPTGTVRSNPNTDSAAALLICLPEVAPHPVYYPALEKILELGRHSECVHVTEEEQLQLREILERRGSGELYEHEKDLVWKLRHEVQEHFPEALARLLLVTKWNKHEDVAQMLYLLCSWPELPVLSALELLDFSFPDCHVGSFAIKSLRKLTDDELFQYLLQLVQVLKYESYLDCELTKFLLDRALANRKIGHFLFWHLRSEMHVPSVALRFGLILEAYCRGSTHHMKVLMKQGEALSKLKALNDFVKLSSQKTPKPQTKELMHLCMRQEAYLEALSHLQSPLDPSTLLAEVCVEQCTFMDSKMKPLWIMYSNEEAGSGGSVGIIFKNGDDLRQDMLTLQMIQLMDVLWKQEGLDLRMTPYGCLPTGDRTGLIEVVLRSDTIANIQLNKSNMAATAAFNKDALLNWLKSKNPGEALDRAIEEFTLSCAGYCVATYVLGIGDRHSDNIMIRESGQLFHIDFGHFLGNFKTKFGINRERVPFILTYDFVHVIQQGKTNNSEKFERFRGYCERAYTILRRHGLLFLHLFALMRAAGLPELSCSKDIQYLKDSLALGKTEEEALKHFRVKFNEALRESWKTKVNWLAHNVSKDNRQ
PI3Kδ (p110δ/p85α), sequence (P27986 whole entry partner): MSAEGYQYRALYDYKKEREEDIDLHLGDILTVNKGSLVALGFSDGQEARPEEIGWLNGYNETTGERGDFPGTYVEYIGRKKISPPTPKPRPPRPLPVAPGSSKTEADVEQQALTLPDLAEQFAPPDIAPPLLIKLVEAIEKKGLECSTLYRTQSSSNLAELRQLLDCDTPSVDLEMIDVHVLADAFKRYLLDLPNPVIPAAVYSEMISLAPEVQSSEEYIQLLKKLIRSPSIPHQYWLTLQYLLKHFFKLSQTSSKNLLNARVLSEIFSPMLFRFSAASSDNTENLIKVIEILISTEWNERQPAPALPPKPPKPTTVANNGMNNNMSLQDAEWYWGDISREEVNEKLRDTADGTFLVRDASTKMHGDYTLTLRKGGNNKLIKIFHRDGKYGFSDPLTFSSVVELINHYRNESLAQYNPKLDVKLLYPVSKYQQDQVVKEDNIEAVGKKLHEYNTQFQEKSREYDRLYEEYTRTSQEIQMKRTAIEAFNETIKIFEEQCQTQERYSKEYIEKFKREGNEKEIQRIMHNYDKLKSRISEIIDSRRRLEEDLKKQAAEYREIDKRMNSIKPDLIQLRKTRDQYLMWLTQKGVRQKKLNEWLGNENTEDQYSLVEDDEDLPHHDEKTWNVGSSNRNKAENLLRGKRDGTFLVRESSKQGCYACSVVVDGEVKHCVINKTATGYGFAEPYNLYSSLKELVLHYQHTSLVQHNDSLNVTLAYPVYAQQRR

CCOc1c(C(C)n2nc(C)c3c(N)ncnc32)cc(Cl)c(F)c1C1CNC(=O)O1 (stereo not shown) [Example 357, 5-{3-[1-(4-amino-3-methyl-1H-pyrazolo[3,4-d]pyrimidin-1-yl)ethyl]-5-chloro-2-ethoxy-6-fluorophenyl}-1,3-oxazolidin-2-one]
relative activity among the four separated stereoisomers (peaks 1-4): most active enantiomer
